pIC50: −log10 of the molar value. Read-outs that look alike come from different tables or passages of the source.
System: NLRP3 inflammasome pathway
Experiment: NLRP3 inflammasome pathway activation assay, IL-1β release (HTRF) in human monocyte-like cells stimulated with MSU or Nigericin
Assay type: cell-based
Settings: for pIC50: IL-1β release, PMA-differentiated, LPS-primed cells
Protocol: The following assays were used to determine the inhibitory activity of test compounds on the NLRP3 inflammasome pathway using common stimuli Nigericin (Invivogen) or monosodium urate crystals (MSU) (Invivogen).
Human monocyte-like cells were cultured in RPMI-1640 Glutamax medium supplemented with 10% heat inactivated FCS and 50 U/ml penicillin-streptomycin (Life Technologies).
Human monocyte-like cells were seeded at 75000 per well in a 96-well plate and were differentiated overnight into macrophages with 10 ng/ml PMA (Phorbol Myristate Acetate). The following day, medium containing 10 ng/ml LPS (Lipopolysaccharide) were added. After 3 hours of LPS priming, concentrations of test compound in the range from 100 μM to 6 nM were added 30 min prior to NLRP3 inflammasome pathway stimulation with Nigericin 3.75 μM or MSU 200 μg/ml for 3 h.
For IL-1β quantification, supernatants were analyzed using HTRF kit according to the manufacturer's instructions (Cisbio 62HIL1BPEH). Briefly, in a 384-well ProxiPlate™ microplate, 8 μl of sample was mixed, with 4 μl of Anti-IL1β Cryptate antibody (40×) and Anti-IL1β XL antibody (40×). Then, incubated overnight at RT. Reading was done using an EnVision Reader (PerkinElmer).
IC50 (concentration corresponding to 50% inhibition) were determined using GraphPad Prism 8.

[1] = Homo sapiens, 3 h, MSU 200 μg/ml for 3 h, read-out: IC50 Human monocyte-like cells MSU
[2] = Homo sapiens, 3 h, read-out: IC50 Human monocyte-like cells Nigericin (μM)
[3] = MSU 200 μg/ml for 3 h, read-out: IC50 Human monocyte-like cells MSU

| Structure (SMILES) | pIC50 [1] | also measured |
| --- | --- | --- |
| CCOC(=O)C1(c2ccon2)CN=C(Nc2c(-c3ccnc(OC)c3)cc(F)cc2C(C)C)O1 (racemic) [Example 1, ethyl 2-{[4-fluoro-2-(2-methoxypyridin-4-yl)-6-(propan-2-yl)phenyl]amino}-5-(1,2-oxazol-3-yl)-4,5-dihydro-1,3-oxazole-5-carboxylate] | > 6.00 |  |
| CCOC(=O)C1(c2ccon2)CN=C(Nc2c(-c3ccnc(OC)c3)ccc3c2CCC3)O1 (racemic) [Example 4, ethyl 2-{[5-(2-methoxypyridin-4-yl)-2,3-dihydro-1H-inden-4-yl]amino}-5-(1,2-oxazol-3-yl)-4,5-dihydro-1,3-oxazole-5-carboxylate] | > 6.00 |  |
| CCOC(=O)C1(c2ccon2)CN=C(Nc2c3c(c(C)c4c2CCC4)CCC3)O1 (racemic) [Example 7, ethyl 5-(isoxazol-3-yl)-2-((8-methyl-1,2,3,5,6,7-hexahydro-s-indacen-4-yl)amino)-4,5-dihydrooxazole-5-carboxylate] | > 6.00 |  |
| COc1cc(-c2ccc3c(c2NC2=NCC(C(=O)O)(c4ccon4)O2)CCC3)ccn1 (racemic) [Example 12, 2-{[5-(2-methoxypyridin-4-yl)-2,3-dihydro-1H-inden-4-yl]amino}-5-(1,2-oxazol-3-yl)-4,5-dihydro-1,3-oxazole-5-carboxylic acid] | 5.00 to 6.00 |  |
| CCOC(=O)C1(c2ccon2)CN=C(Nc2c(-c3ccnc(OC)c3)ccc3c2CCO3)O1 (racemic) [Example 17, ethyl 5-(isoxazol-3-yl)-2-((5-(2-methoxypyridin-4-yl)-2,3-dihydrobenzofuran-4-yl)amino)-4,5-dihydrooxazole-5-carboxylate] | > 6.00 |  |
| CCOC(=O)C1(c2ccon2)CN=C(Nc2c(-c3ccncc3)cc(F)cc2C(C)C)O1 (racemic) [Example 18, ethyl 2-((4-fluoro-2-isopropyl-6-(pyridin-4-yl)phenyl)amino)-5-(isoxazol-3-yl)-4,5-dihydrooxazole-5-carboxylate] | > 6.00 |  |
| CCOC(=O)C1(c2ccon2)CN=C(Nc2c(-c3ccnc(OC)c3)cc(F)c3c2CCC3)O1 (racemic) [Example 19, ethyl 2-((7-fluoro-5-(2-methoxypyridin-4-yl)-2,3-dihydro-1H-inden-4-yl)amino)-5-(isoxazol-3-yl)-4,5-dihydrooxazole-5-carboxylate] | > 6.00 |  |
| CCOC(=O)C1(c2ccon2)CN=C(Nc2c3c(cc(C)c2-c2ccnc(OC)c2)CCC3)O1 (racemic) [Example 20, ethyl 5-(isoxazol-3-yl)-2-((5-(2-methoxypyridin-4-yl)-6-methyl-2,3-dihydro-1H-inden-4-yl)amino)-4,5-dihydrooxazole-5-carboxylate] | > 6.00 |  |
| CCOC(=O)C1(c2ccon2)CN=C(Nc2c3c(c(C(F)(F)F)c4c2CCC4)CCC3)O1 (racemic) [Example 21, ethyl 5-(isoxazol-3-yl)-2-((8-(trifluoromethyl)-1,2,3,5,6,7-hexahydro-s-indacen-4-yl)amino)-4,5-dihydrooxazole-5-carboxylate] | 5.00 to 6.00 | IC50 [2]: < 1 µM |
| CCOC(=O)C1(c2ccon2)CN=C(Nc2c(C(C)C)cc(F)cc2C(C)C)O1 (racemic) [Example 23, ethyl 2-((4-fluoro-2,6-diisopropylphenyl)amino)-5-(isoxazol-3-yl)-4,5-dihydrooxazole-5-carboxylate] | 5.00 to 6.00 |  |
| CCOC(=O)C1(c2ccon2)CN=C(Nc2c(-c3ccnc(OC)c3)cc(F)cc2C(C)C)O1 (single isomer, unassigned) [Example 2, ethyl 2-{[4-fluoro-2-(2-methoxypyridin-4-yl)-6-(propan-2-yl)phenyl]amino}-5-(1,2-oxazol-3-yl)-4,5-dihydro-1,3-oxazole-5-carboxylate] | > 6.00 |  |
| CCOC(=O)C1(c2ccon2)CN=C(Nc2c(-c3ccnc(OC)c3)cc(F)cc2C(C)C)O1 (single isomer, unassigned) [Example 3, ethyl 2-{[4-fluoro-2-(2-methoxypyridin-4-yl)-6-(propan-2-yl)phenyl]amino}-5-(1,2-oxazol-3-yl)-4,5-dihydro-1,3-oxazole-5-carboxylate] |  | pIC50 [3]: 5.00 to 6.00 |
| CCOC(=O)C1(c2ccon2)CN=C(Nc2c3c(c(-c4ccccc4)c4c2CCC4)CCC3)O1 (single isomer, unassigned) [Example 9, ethyl 5-(isoxazol-3-yl)-2-((8-phenyl-1,2,3,5,6,7-hexahydro-s-indacen-4-yl)amino)-4,5-dihydrooxazole-5-carboxylate] |  | IC50 [2]: 1 to 10 µM; pIC50 [3]: > 6.00 |
| COc1cc(-c2cc(F)cc(C(C)C)c2NC2=NCC(C(=O)O)(c3ccon3)O2)ccn1 (single isomer, unassigned) [Example 11, 2-{[4-fluoro-2-(2-methoxypyridin-4-yl)-6-(propan-2-yl)phenyl]amino}-5-(1,2-oxazol-3-yl)-4,5-dihydro-1,3-oxazole-5-carboxylic acid] | > 6.00 | IC50 [2]: 1 to 10 µM |
| Cc1c2c(c(NC3=NCC(C(=O)O)(c4ccon4)O3)c3c1CCC3)CCC2 (single isomer, unassigned) [Example 15, 2-[(8-methyl-1,2,3,5,6,7-hexahydro-s-indacen-4-yl)amino]-5-(1,2-oxazol-3-yl)-4,5-dihydro-1,3-oxazole-5-carboxylic acid] | 5.00 to 6.00 |  |
| CCOC(=O)C1(c2ccon2)CN=C(Nc2c3c(c(-c4ccccc4)c4c2CCC4)CCC3)O1 (single isomer, unassigned) [Example 16, ethyl 5-(isoxazol-3-yl)-2-((8-phenyl-1,2,3,5,6,7-hexahydro-s-indacen-4-yl)amino)-4,5-dihydrooxazole-5-carboxylate] |  | pIC50 [3]: 4.52 to 5.00; pIC50 (read-out: IC50 Human monocyte-like cells Nigericin, Nigericin 3.75 μM for 3 h): 5.00 to 6.00 |
| COc1cc(-c2cc(F)cc(C(C)C)c2NC2=NCC(C(=O)O)(c3ccon3)O2)ccn1 (stereo not shown) [Example 10, 2-{[4-fluoro-2-(2-methoxypyridin-4-yl)-6-(propan-2-yl)phenyl]amino}-5-(1,2-oxazol-3-yl)-4,5-dihydro-1,3-oxazole-5-carboxylic acid] | > 6.00 |  |
| COc1cc(-c2ccc3c(c2NC2=NCC(C(=O)O)(c4ccon4)O2)CCC3)ccn1 (stereo not shown) [Example 13, 2-{[5-(2-methoxypyridin-4-yl)-2,3-dihydro-1H-inden-4-yl]amino}-5-(1,2-oxazol-3-yl)-4,5-dihydro-1,3-oxazole-5-carboxylic acid] | > 6.00 | IC50 [2]: 10 to 30 µM |
| Cc1c2c(c(NC3=NCC(C(=O)O)(c4ccon4)O3)c3c1CCC3)CCC2 (stereo not shown) [Example 14, 2-[(8-methyl-1,2,3,5,6,7-hexahydro-s-indacen-4-yl)amino]-5-(1,2-oxazol-3-yl)-4,5-dihydro-1,3-oxazole-5-carboxylic acid] | 5.00 to 6.00 |  |
| COc1cc(-c2ccc3c(c2NC2=NCC(C(=O)O)(c4ccon4)O2)CCO3)ccn1 (stereo not shown) [Example 24, 5-(isoxazol-3-yl)-2-((5-(2-methoxypyridin-4-yl)-2,3-dihydrobenzofuran-4-yl)amino)-4,5-dihydrooxazole-5-carboxylic acid] | 5.00 to 6.00 |  |
| CC(C)c1cc(F)cc(-c2ccncc2)c1NC1=NCC(C(=O)O)(c2ccon2)O1 (stereo not shown) [Example 25, 2-((4-fluoro-2-isopropyl-6-(pyridin-4-yl)phenyl)amino)-5-(isoxazol-3-yl)-4,5-dihydrooxazole-5-carboxylic acid] | 5.00 to 6.00 |  |
| COc1cc(-c2cc(F)c3c(c2NC2=NCC(C(=O)O)(c4ccon4)O2)CCC3)ccn1 (stereo not shown) [Example 26, 2-((7-fluoro-5-(2-methoxypyridin-4-yl)-2,3-dihydro-1H-inden-4-yl)amino)-5-(isoxazol-3-yl)-4,5-dihydrooxazole-5-carboxylic acid] | 5.00 to 6.00 |  |
| COc1cc(-c2c(C)cc3c(c2NC2=NCC(C(=O)O)(c4ccon4)O2)CCC3)ccn1 (stereo not shown) [Example 27, 5-(isoxazol-3-yl)-2-((5-(2-methoxypyridin-4-yl)-6-methyl-2,3-dihydro-1H-inden-4-yl)amino)-4,5-dihydrooxazole-5-carboxylic acid] | > 6.00 | IC50 [2]: 1 to 10 µM |
| O=C(O)C1(c2cnoc2)CN=C(Nc2c3c(c(-c4ccccc4)c4c2CCC4)CCC3)O1 (stereo not shown) [Example 28, lithium 5-(isoxazol-4-yl)-2-((8-phenyl-1,2,3,5,6,7-hexahydro-s-indacen-4-yl)amino)-4,5-dihydrooxazole-5-carboxylate] |  | IC50 (Homo sapiens, 3 h, read-out: IC50 Human monocyte-like cells MSU (μM)): 10 to 30 µM; IC50 [2]: 10 to 30 µM |
